Patent publication US20100189648A1, “INHIBITORS FOR DISRUPTING THE INTERACTION OF UBIQUITINATION RELATED ENZYMES AND USES THEREOF” (priority 2006, published 2010)
In brackets after ≈: the same amount, converted by molar mass. Like-named read-outs stand apart in the source and are kept apart here.

How the values were obtained:
Type in all cases: cell-based, human
SKOV3 = test: MTT survival assay, ovarian cancer cell line (SKOV3); conditions: SKOV3 (second table)
Protocol: (§1) The effect of the above identified compounds on anti-tumor activity in human carcinoma cells was determined by the MTT survival assay. The MTT assay is a commonly used method in evaluation of cell survival, based on the ability of viable cells to convert MTT (MTT, Sigma, Cat No. 044K5307), a soluble tetrazolium salt [3-(4,5-dimethylthuazole-2-yl)-2,5 diphenyl tetrazolium bromide], into an insoluble formazan precipitate, which is quantitated by spectrophotometry following solubilization in dimethyl sulfoxide (DMSO).
(§2) In brief, different carcinoma cells were treated with negative control, various test articles at different concentration, and positive control (DDP), in 96-well tissue culture dishes. Each test article at different concentration is repeated 3 times.
(§3) Different carcinoma cells were diluted with 10% FBS and RPM1640 or MEM media to a concentration of 3-5×10^4 per ml suspension. 100 microliter of cells were incubated in each well in 96-well tissue culture dishes at 37 C. The cells were incubated at 37 C on the first day. On the second day, media supernatant was removed and replaced with media and different concentration of test articles (100 microliter in each well). Three Negative control wells and three positive control (DDP) wells were also included. The 96-well plate were incubated at 37 C for another 68 hours. After 68 hours, supernatant of each well was removed. 100 microliter of 1 mg/ml MTT diluted in PBS was injected into each well. The cells were incubated at 37 C for another 4 hours. The cells were then solubilized in 150 microliter DMSO, mixed for 10 minutes and absorbance readings were taken using Microplate reader Bio-Rad Model 550 at 570 nm. IR (cell growth inhibition rate) % was calculated as (OD570 of negative control-OD570 with test article)/OD570 of negative control. IC50 (cell 50% inhibition concentration) at 95% confidence level was calculated with Bliss method.

U251 = test: MTT survival assay, glioma cell line (brain tumor U251); conditions: U251 (second table)
Protocol: as §1, §2, §3

A459 = test: MTT survival assay, lung cancer cell line (A459); conditions: A459 Experiment #2; for IC50: Homo sapiens
Protocol: as §1, §2, §3

MCF-7 = test: MTT survival assay, breast cancer cell line (MCF-7); conditions: for IC50: Homo sapiens
Protocol: as §1, §2, §3

SMMC-7721 = test: MTT survival assay, liver cancer cell line (SMMC-7721); conditions: SMMC-7721 Experiment #2; for IC50: Homo sapiens
Protocol: as §1, §2, §3

Hela cells = test: MTT survival assay, cervical cancer line (Hela cells); conditions: for IC50: Homo sapiens
Protocol: as §1, §2, §3

[1] = 95% confidence limits of IC50, read-out: IC50 (95% confidence level), interval
[2] = Bliss method, unit not printed (concentrations in μg/ml), read-out: IC50 (95% confidence level)

SMILES: Cc1ccc(S(=O)(=O)NCC(=O)NCC(c2ccccc2)c2c[nH]c3ccccc23)cc1 (centres unmarked) [Mol 640]
- IC50 (SKOV3; Homo sapiens, SK-OV-3, Bliss method, unit not printed (concentrations in μg/ml), read-out: IC50 (95% confidence level)): 26.9 µg/mL (≈ 60 µM)
- IR (%) (SKOV3; 3.125 μg/ml): 0%
- OD(A570 nm) (SKOV3; 3.125 μg/ml): 0.716 ± 0.048
- IR (%) (SKOV3; 6.25 μg/ml): 10.3%
- OD(A570 nm) (SKOV3; 6.25 μg/ml): 0.628 ± 0.025
- IR (%) (SKOV3; 12.5 μg/ml): 9.7%
- OD(A570 nm) (SKOV3; 12.5 μg/ml): 0.632 ± 0.020
- IR (%) (SKOV3; 25 μg/ml): 43.8%
- OD(A570 nm) (SKOV3; 25 μg/ml): 0.394 ± 0.037
- IR (%) (SKOV3; 50 μg/ml): 88.3%
- OD(A570 nm) (SKOV3; 50 μg/ml): 0.082 ± 0.008
- IR (%) (SKOV3; 100 μg/ml): 88.7%
- OD(A570 nm) (SKOV3; 100 μg/ml): 0.079 ± 0.010
- IC50 (U251; Homo sapiens, U-251, Bliss method, unit not printed (concentrations in μg/ml), read-out: IC50 (95% confidence level)): 11.7 µg/mL (≈ 26 µM)
- IR (%) (U251; 3.125 μg/ml): 9.2%
- OD(A570 nm) (U251; 3.125 μg/ml): 0.796 ± 0.055
- IR (%) (U251; 6.25 μg/ml): 20.6%
- OD(A570 nm) (U251; 6.25 μg/ml): 0.696 ± 0.054
- IR (%) (U251; 12.5 μg/ml): 59.6%
- OD(A570 nm) (U251; 12.5 μg/ml): 0.354 ± 0.021
- IR (%) (U251; 25 μg/ml): 90.3%
- OD(A570 nm) (U251; 25 μg/ml): 0.085 ± 0.012
- IR (%) (U251; 50 μg/ml): 90.1%
- OD(A570 nm) (U251; 50 μg/ml): 0.087 ± 0.012
- IR (%) (U251; 100 μg/ml): 89.7%
- OD(A570 nm) (U251; 100 μg/ml): 0.090 ± 0.014
- IR (%) (A459; 3.125 μg/ml): −22.6%
- OD(A570 nm) (A459; 3.125 μg/ml): 0.781 ± 0.040
- IR (%) (A459; 6.25 μg/ml): −12.5%
- OD(A570 nm) (A459; 6.25 μg/ml): 0.717 ± 0.020
- IR (%) (A459; 12.5 μg/ml): 6.9%
- OD(A570 nm) (A459; 12.5 μg/ml): 0.593 ± 0.034
- IR (%) (A459; 25 μg/ml): 63.6%
- OD(A570 nm) (A459; 25 μg/ml): 0.232 ± 0.006
- IR (%) (A459; 50 μg/ml): 87.2%
- OD(A570 nm) (A459; 50 μg/ml): 0.081 ± 0.010
- IR (%) (A459; 100 μg/ml): 87.1%
- OD(A570 nm) (A459; 100 μg/ml): 0.082 ± 0.014
- IC50 (A459; [1]): 25.5 to 26.1 µg/mL (≈ 57 to 58.4 µM)
- IC50 (A459; [2]): 25.8 µg/mL (≈ 57.7 µM)
- IR (%) (MCF-7; 3.125 μg/ml): 10.5%
- OD(A570 nm) (MCF-7; 3.125 μg/ml): 0.807 ± 0.016
- IR (%) (MCF-7; 6.25 μg/ml): 21.5%
- OD(A570 nm) (MCF-7; 6.25 μg/ml): 0.708 ± 0.058
- IR (%) (MCF-7; 12.5 μg/ml): 28.1%
- OD(A570 nm) (MCF-7; 12.5 μg/ml): 0.649 ± 0.036
- IR (%) (MCF-7; 25 μg/ml): 89.6%
- OD(A570 nm) (MCF-7; 25 μg/ml): 0.094 ± 0.012
- IR (%) (MCF-7; 50 μg/ml): 89.1%
- OD(A570 nm) (MCF-7; 50 μg/ml): 0.098 ± 0.012
- IR (%) (MCF-7; 100 μg/ml): 92.3%
- OD(A570 nm) (MCF-7; 100 μg/ml): 0.069 ± 0.007
- IC50 (MCF-7; MCF7, 95% confidence limits of IC50, read-out: IC50 (95% confidence level), interval): 12.3 to 16.1 µg/mL (≈ 27.6 to 36 µM)
- IC50 (MCF-7; MCF7, Bliss method, unit not printed (concentrations in μg/ml), read-out: IC50 (95% confidence level)): 14.1 µg/mL (≈ 31.5 µM)
- IC50 (SMMC-7721; [1]): 7.68 to 8.36 µg/mL (≈ 17.2 to 18.7 µM)
- IC50 (SMMC-7721; [2]): 8.02 µg/mL (≈ 17.9 µM)
- IR (%) (SMMC-7721; 3.125 μg/ml): 53.4%
- OD(A570 nm) (SMMC-7721; 3.125 μg/ml): 0.215 ± 0.008
- IR (%) (SMMC-7721; 6.25 μg/ml): 39.8%
- OD(A570 nm) (SMMC-7721; 6.25 μg/ml): 0.278 ± 0.013
- IR (%) (SMMC-7721; 12.5 μg/ml): 41.9%
- OD(A570 nm) (SMMC-7721; 12.5 μg/ml): 0.268 ± 0.013
- IR (%) (SMMC-7721; 25 μg/ml): 56.6%
- OD(A570 nm) (SMMC-7721; 25 μg/ml): 0.200 ± 0.002
- IR (%) (SMMC-7721; 50 μg/ml): 80.2%
- OD(A570 nm) (SMMC-7721; 50 μg/ml): 0.091 ± 0.002
- IR (%) (SMMC-7721; 100 μg/ml): 78.7%
- OD(A570 nm) (SMMC-7721; 100 μg/ml): 0.098 ± 0.014
- IR (%) (Hela cells; 0.41 μg/ml): 12.3%
- OD(A570 nm) (Hela cells; 0.41 μg/ml): 0.651 ± 0.044
- OD(A570 nm) (Hela cells; 1.23 μg/ml): 0.826 ± 0.101
- OD(A570 nm) (Hela cells; 3.70 μg/ml): 0.819 ± 0.085
- IR (%) (Hela cells; 11.11 μg/ml): 12.2%
- OD(A570 nm) (Hela cells; 11.11 μg/ml): 0.652 ± 0.057
- IR (%) (Hela cells; 33.33 μg/ml): 76.8%
- OD(A570 nm) (Hela cells; 33.33 μg/ml): 0.172 ± 0.010
- IR (%) (Hela cells; 100 μg/ml): 89.5%
- OD(A570 nm) (Hela cells; 100 μg/ml): 0.078 ± 0.023
- IC50 (Hela cells; [1]): 21.9 to 29.1 µg/mL (≈ 49 to 65.1 µM)
- IC50 (Hela cells; [2]): 25.3 µg/mL (≈ 56.4 µM)
